Publication PMC11801715, “Activating PKC-ε induces HIV expression with improved tolerability” (PLOS Pathogens, 2025)
pEC50: −log10 of the molar value.

What was measured:
[1] = tested on: PKC δ and ε over α and β; details: cited from earlier work
[2] = target: PKC-γ (Homo sapiens, UniProt P05129); test: PKC isoform translocation in A549-tGFP cells; type: cell-based; parameters: host or cells: A549; details: 60 minutes
Protocol: (§1) Using these findings we embarked on new designs for DAG-lactones with additional substituents from the ester moiety in combination with a few olefin substituents. A description of this effort is reported elsewhere.
(§2) Cellular translocation of PKC isoforms upon activation was determined in 8 A549 cell lines, each expressing a single PKC isoform fused to tGFP (PhenoVista Biosciences). Cells were plated in 384-well plates (80 μL/well) at 10^5 cells/mL in RPMI with 10% FBS and rested overnight. PKC agonist(s) were serially diluted at 1:3 steps in DMSO and added to the cells. After 60 minutes in an incubator at 37 °C, 5% CO2, cells were stained with Hoechst-33342 and fixed with 2% paraformaldehyde for 30 minutes at 4 °C. Cells were then stained with wheat germ agglutinin conjugated to AlexaFluor647 (WGA-647) for 10 minutes at 4 °C, washed to remove excess dye and imaged with Cellomics Array Scan (Thermo Fisher) at room temperature (RT). Images were analyzed using Cellomics automated image analysis algorithm. Plasma membrane translocation was quantified using the ratio between the average fluorescence in the areas at the cell edge defined by WGA-647 and the cytoplasm region.

[3] = target: PKC-β2 (Homo sapiens, UniProt P05771); test: PKC isoform translocation in A549-tGFP cells; type: cell-based; parameters: host or cells: A549; details: 60 minutes
Sequence of PKC-β2 (P05771 1-673 isoform P05771-2): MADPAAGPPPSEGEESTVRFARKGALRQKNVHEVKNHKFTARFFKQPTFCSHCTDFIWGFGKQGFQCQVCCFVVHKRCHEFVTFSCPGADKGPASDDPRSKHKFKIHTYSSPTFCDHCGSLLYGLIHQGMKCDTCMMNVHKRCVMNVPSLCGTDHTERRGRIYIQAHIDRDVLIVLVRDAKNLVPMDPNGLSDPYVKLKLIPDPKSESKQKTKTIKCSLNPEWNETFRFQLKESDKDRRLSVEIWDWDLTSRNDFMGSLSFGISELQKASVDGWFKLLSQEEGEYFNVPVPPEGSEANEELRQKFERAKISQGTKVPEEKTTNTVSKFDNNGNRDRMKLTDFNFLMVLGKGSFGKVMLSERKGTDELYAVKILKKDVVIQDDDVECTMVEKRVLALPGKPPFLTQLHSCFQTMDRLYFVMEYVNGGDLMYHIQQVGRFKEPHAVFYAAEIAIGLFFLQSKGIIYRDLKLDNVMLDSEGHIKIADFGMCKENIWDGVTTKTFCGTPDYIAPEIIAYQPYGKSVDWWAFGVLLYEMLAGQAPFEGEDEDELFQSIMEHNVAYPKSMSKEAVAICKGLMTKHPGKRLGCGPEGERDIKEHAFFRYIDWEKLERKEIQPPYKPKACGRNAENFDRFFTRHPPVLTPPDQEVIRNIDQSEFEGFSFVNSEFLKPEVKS
Protocol: as §1, §2

[4] = target: PKC-β1 (Homo sapiens, UniProt P05771); test: PKC isoform translocation in A549-tGFP cells; type: cell-based; parameters: host or cells: A549; details: 60 minutes
Sequence of PKC-β1 (P05771 whole entry, canonical isoform): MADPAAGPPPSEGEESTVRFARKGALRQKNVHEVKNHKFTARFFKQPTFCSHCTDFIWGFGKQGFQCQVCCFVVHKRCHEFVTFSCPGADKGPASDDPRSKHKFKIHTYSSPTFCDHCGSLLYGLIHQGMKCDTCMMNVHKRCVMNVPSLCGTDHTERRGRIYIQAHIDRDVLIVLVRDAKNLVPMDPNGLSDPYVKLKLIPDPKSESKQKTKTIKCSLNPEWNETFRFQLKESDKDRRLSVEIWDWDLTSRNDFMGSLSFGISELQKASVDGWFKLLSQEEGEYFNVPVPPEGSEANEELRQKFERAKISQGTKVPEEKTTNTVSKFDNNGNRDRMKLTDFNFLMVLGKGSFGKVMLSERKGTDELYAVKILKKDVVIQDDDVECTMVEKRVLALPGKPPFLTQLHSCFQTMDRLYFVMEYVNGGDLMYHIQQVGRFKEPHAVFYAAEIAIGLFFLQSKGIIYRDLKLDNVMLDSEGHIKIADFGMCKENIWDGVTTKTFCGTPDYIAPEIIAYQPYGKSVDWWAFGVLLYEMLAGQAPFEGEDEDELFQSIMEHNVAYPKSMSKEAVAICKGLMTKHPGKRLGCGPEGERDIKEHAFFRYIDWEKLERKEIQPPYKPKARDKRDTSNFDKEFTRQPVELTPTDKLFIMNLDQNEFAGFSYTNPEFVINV
Protocol: as §1, §2

[5] = target: T1, PKC-ε (Homo sapiens, UniProt Q02156); test: PKC isoform translocation in A549-tGFP cells; type: cell-based; parameters: host or cells: A549; details: A549-tGFP cells, 60 minutes
T1 sequence (Q02156 1-737): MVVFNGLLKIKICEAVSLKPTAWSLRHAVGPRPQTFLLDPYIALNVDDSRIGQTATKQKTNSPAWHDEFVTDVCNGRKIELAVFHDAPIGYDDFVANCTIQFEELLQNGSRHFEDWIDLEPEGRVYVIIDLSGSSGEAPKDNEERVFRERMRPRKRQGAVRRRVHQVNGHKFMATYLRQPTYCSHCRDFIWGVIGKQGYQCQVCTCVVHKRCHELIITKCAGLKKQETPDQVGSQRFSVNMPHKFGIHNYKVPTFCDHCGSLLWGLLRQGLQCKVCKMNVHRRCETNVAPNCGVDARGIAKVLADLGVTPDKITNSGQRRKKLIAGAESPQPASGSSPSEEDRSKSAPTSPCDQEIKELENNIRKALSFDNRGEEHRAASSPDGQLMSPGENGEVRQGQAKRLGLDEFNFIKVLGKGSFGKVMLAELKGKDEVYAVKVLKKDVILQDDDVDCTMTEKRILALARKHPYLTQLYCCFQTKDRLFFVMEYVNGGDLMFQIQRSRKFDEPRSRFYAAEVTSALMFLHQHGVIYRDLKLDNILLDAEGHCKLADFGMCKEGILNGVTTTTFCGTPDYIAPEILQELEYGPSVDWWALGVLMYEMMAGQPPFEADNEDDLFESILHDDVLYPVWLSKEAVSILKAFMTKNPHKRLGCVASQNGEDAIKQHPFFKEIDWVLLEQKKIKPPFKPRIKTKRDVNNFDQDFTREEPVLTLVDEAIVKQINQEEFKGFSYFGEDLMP
Protocol: as §1, §2

[6] = target: PKC-θ (Homo sapiens, UniProt Q04759); test: PKC isoform translocation in A549-tGFP cells; type: cell-based; parameters: host or cells: A549; details: A549-tGFP cells, 60 minutes
Sequence of PKC-θ (Q04759 whole entry, canonical isoform): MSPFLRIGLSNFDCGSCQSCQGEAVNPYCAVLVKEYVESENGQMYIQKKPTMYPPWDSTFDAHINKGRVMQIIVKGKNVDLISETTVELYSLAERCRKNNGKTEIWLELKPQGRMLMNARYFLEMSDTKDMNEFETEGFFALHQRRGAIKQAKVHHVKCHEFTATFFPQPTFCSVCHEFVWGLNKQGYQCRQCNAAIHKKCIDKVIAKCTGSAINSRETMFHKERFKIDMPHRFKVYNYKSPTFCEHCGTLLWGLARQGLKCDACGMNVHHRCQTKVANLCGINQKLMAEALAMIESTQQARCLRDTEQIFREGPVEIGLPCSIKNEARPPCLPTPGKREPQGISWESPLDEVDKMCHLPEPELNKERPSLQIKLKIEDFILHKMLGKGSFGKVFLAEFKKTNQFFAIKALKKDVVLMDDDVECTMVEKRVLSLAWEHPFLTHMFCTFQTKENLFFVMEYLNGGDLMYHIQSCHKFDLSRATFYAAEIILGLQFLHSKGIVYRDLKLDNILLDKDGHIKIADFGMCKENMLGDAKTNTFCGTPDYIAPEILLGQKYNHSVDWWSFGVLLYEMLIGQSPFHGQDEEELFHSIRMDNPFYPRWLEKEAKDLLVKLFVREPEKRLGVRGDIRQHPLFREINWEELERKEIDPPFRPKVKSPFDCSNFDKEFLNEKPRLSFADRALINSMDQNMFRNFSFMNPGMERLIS
Protocol: (§3) A description of this effort is reported elsewhere.
as §2

[7] = target: PKC-δ (Homo sapiens, UniProt Q05655); test: PKC isoform translocation in A549-tGFP cells; type: cell-based; parameters: host or cells: A549; details: EC50 for PKC-δ translocation
Sequence of PKC-δ (Q05655 whole entry, canonical isoform): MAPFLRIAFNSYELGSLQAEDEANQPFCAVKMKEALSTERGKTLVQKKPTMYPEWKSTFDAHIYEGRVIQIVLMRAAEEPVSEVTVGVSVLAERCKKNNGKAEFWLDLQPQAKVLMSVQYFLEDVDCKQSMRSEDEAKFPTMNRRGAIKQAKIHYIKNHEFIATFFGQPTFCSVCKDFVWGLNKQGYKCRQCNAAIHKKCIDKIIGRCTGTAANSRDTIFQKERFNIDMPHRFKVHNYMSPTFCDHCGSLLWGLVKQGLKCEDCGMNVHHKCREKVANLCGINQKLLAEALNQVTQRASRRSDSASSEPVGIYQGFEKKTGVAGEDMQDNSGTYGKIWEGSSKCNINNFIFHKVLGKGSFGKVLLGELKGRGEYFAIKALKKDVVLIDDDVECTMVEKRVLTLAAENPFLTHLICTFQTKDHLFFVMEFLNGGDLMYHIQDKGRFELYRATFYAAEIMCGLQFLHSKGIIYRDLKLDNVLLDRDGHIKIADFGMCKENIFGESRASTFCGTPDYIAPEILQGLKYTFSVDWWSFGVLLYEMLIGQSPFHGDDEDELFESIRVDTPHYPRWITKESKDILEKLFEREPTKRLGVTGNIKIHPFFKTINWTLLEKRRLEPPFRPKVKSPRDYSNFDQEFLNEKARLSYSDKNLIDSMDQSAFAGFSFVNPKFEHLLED
Protocol: as §3, §2

[8] = target: PKC-η (Homo sapiens, UniProt P24723); test: PKC isoform translocation in A549-tGFP cells; type: cell-based; parameters: host or cells: A549; details: A549-tGFP cells, 60 minutes
Sequence of PKC-η (P24723 whole entry, canonical isoform): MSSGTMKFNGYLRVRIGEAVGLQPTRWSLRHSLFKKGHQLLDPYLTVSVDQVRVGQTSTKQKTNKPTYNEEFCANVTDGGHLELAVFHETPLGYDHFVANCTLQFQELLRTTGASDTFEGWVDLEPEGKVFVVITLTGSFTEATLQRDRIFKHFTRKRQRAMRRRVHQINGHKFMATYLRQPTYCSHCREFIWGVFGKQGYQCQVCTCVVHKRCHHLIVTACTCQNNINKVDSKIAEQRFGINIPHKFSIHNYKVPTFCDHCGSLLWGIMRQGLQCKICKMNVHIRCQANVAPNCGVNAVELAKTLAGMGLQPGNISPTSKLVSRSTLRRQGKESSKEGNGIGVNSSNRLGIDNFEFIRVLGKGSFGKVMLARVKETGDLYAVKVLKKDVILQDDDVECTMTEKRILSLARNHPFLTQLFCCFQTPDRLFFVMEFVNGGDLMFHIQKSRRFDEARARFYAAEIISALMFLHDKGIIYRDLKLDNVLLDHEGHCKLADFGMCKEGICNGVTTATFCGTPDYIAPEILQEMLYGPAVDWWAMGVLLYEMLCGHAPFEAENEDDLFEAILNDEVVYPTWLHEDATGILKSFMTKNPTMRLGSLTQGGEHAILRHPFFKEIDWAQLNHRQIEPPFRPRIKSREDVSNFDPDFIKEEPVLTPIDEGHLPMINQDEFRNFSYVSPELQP
Protocol: as §3, §2

[9] = target: PKC-α (Homo sapiens, UniProt P17252); test: PKC isoform translocation in A549-tGFP cells; type: cell-based; parameters: host or cells: A549
Protocol: as §3, §2

[10] = tested on: platelets (CD62P+) and CD4+ T cells (CD69+) in whole blood; test: In vitro whole blood platelet and CD4+ T-cell activation assay; type: cell-based, human; details: whole blood from healthy donors; platelets to CD4+ T cells
Protocol: We developed a novel human whole blood assay to determine whether other PKC agonists also activate platelets at the same concentrations that are required to activate CD4^+ T cells. Platelet activation was assessed by CD62P (P-selectin), which traffics to the cell surface upon activation and α-granule release. CD4^+ T-cell activation was assessed by CD69 upregulation (Fig 7A).
Whole blood was drawn into sodium citrate tubes using a 21-gauge needle. To prevent potential interference from tissue thromboplastin released during venipuncture, which could affect the accuracy of coagulation testing, the first 2 mL of blood drawn was discarded. PKC agonist molecules were dispensed in a dilution series into 80 μL of blood per well in a flat-bottom 96-well plate and mixed gently. Care was taken not to introduce any mechanical stress-related activation of platelets. […] The remaining 72 μL of blood in the first plate was incubated for 1 additional hour and stained with anti-human CD3 (UCHT1), CD4 (SK3), and CD69 (FN50) (30 minutes in the dark). Red blood cell lysis and fixing was done using BD lyse/fix solution. Stained cells were acquired on BD LSR Fortessa II after washing. […] EC50 values for platelet and CD4 T-cell activation for each agonist was obtained by nonlinear regression curve fit using GraphPad Prism version 9.3.0.

[11] = cited from earlier work

CC(C)CC(C/C=C1\CC(CO)(COC(=O)C(C)(C)C)OC1=O)CC(C)C (centres unmarked) [AJH-863, reference compound]
potency as PKC agonist [1]: low nanomolar potency
selectivity for δ and ε over α and β [1]: approximately 10 fold
pEC50 [2]: 4.71
pEC50 [3]: 5.97
pEC50 [4]: 5.89
pEC50 [5]: 6.30
pEC50 [6]: 5.92
pEC50 [7]: 5.64
pEC50 [8]: 5.72
pEC50 [9]: < 4.30

CCCCCC(=O)O[C@H]1C(C)=C[C@]23C(=O)[C@@H](C=C(CO)[C@@H](O)[C@]12O)[C@H]1[C@@H](C[C@H]3C)C1(C)C [Ingenol B, reference compound]
CD62P EC50/CD69 EC50 ratio Geomean [10]: 1.8

CCCCCCCCCCCCCC(=O)O[C@@H]1[C@@H](C)[C@@]2(O)[C@@H](C=C(CO)C[C@]3(O)C(=O)C(C)=C[C@@H]23)[C@@H]2C(C)(C)[C@]12OC(C)=O [PMA, phorbol 12-myristate 13-acetate, reference compound]
CD62P EC50/CD69 EC50 ratio Geomean [10]: 1.5

CCC/C=C/C=C/C(=O)O[C@H]1/C(=C/C(=O)OC)C[C@H]2C[C@H]([C@@H](C)O)OC(=O)C[C@H](O)C[C@@H]3C[C@H](OC(C)=O)C(C)(C)[C@](O)(C[C@@H]4C/C(=C/C(=O)OC)C[C@H](/C=C/C(C)(C)[C@]1(O)O2)O4)O3 [Bryostatin, reference compound]
dose-limiting toxicity [11]: myalgia
CD62P EC50/CD69 EC50 ratio Geomean [10]: 0.9
